{"source": "PubChem BioAssay AID1253", "about": "(Columbia University Molecular Screening Center, 2008)", "molecular_target": "Tyrosine-protein phosphatase non-receptor type 22 (Homo sapiens) (UniProt Q9Y2R2)", "sequence (Q9Y2R2 whole entry, looked up)": "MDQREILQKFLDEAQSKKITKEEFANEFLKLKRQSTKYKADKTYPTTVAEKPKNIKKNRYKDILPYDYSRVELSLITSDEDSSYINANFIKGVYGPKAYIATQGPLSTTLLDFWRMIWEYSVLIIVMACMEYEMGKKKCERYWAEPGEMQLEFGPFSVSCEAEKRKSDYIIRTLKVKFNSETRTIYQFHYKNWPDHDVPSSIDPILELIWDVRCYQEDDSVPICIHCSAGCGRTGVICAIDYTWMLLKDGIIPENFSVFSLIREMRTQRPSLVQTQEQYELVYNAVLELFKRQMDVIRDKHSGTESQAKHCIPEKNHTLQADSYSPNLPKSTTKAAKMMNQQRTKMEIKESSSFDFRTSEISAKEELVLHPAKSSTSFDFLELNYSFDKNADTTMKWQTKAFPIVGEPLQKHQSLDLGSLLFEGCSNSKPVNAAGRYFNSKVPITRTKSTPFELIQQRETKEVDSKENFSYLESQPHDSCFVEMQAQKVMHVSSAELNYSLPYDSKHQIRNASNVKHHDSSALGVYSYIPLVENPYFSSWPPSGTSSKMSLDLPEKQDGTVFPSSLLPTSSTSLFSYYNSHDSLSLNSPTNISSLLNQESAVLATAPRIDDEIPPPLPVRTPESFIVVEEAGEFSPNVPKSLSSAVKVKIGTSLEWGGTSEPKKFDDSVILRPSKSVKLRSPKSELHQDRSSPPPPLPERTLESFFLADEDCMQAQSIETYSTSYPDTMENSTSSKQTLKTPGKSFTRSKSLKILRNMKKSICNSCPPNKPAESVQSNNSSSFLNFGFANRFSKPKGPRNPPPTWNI", "assay": "LYP phosphatase inhibitors, confirmation, biochemical, DiFMUP fluorescence, retest and dose response (AID 1253)", "details": "recombinant LYP; for inhibition: at 10 µM, stronger effect = higher value", "note": "The source made the active and inactive calls.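 Rule for the calls: active = IC50 under 10 µM in the follow-up dose response; inactive = IC50 10 µM or more, or under 40% single-dose inhibition.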"}
{"compound": "CNC(=S)NNC(=O)c1cccn(Cc2ccc(Cl)cc2Cl)c1=O", "values": [{"measurement": "inhibition", "value": "inactive"}]}
{"compound": "CC(=O)Nc1cccc(NC(=O)CCn2cnc3cc(C)c(C)cc32)c1", "values": [{"measurement": "inhibition", "value": "inactive"}]}
{"compound": "O=C(NC(C(=O)N/N=C/c1ccccc1)c1n[nH]c(=O)c2ccccc12)c1ccccc1", "note": "(stereo unspecified)", "values": [{"measurement": "inhibition", "value": "inactive"}]}
{"compound": "CCOC(=O)C1=C(C)OC(N)=C(C#N)C1c1c(C)nn(-c2ccc(C)cc2)c1Cl", "note": "(stereo unspecified)", "values": [{"measurement": "inhibition", "value": "inactive"}]}
{"compound": "COc1ccc2c(C)cc(SCC(=O)Nc3c(C)n(C)n(-c4ccccc4)c3=O)nc2c1", "values": [{"measurement": "inhibition", "value": "inactive"}]}
{"compound": "Cn1nc(-c2ccc(Cl)cc2)nc2c(=O)n(C)c(=O)nc1-2", "values": [{"measurement": "IC50", "value": "> 10000 nM (inactive)"}]}
{"compound": "CN1/C(=C\\C=C\\C2=[N+](C)c3ccc4ccccc4c3C2(C)C)C(C)(C)c2ccccc21", "values": [{"measurement": "inhibition", "value": "inactive"}]}
{"compound": "CCOc1ccc(N2C(=O)CS/C2=C(\\C(Cl)=C(Cl)Cl)[N+](=O)[O-])cc1", "values": [{"measurement": "inhibition", "value": "inactive"}]}
{"compound": "Cc1c2cc(O)c(=O)cc-2oc2cc(O)c(O)cc12", "values": [{"measurement": "IC50", "value": 480, "unit": "nM"}]}
{"compound": "Cc1ccc(Cn2c(=N)c(C(=O)NCc3ccco3)cc3c(=O)n4ccccc4nc32)cc1", "values": [{"measurement": "inhibition", "value": "inactive"}]}
{"compound": "O=c1c(-c2nnc(SCc3ccc(Cl)cc3Cl)o2)cccn1Cc1ccccc1", "values": [{"measurement": "inhibition", "value": "inactive"}]}
{"compound": "COCc1cc(C)nc(Nc2ccccc2C)c1C#N", "values": [{"measurement": "inhibition", "value": "inactive"}]}
{"compound": "Cc1nc2ccc(S(=O)(=O)NCC(=O)NCc3ccc4c(c3)OCO4)cc2s1", "values": [{"measurement": "inhibition", "value": "inactive"}]}
{"compound": "COc1ccccc1/C=C\\C=N\\n1c(C2CCCCC2)n[nH]c1=S", "values": [{"measurement": "inhibition", "value": "inactive"}]}
{"compound": "COc1ccc2cc3cc(C(=O)N4CCN(Cc5ccc6c(c5)OCO6)CC4)oc3nc2c1", "values": [{"measurement": "inhibition", "value": "inactive"}]}
{"compound": "O=C(Nc1ccc(-c2nc3ccc(NC(=O)c4cccs4)cc3[nH]2)cc1)c1cccs1", "values": [{"measurement": "inhibition", "value": "inactive"}]}
